Test results as given in paper PMC6129362, “MT1-MMP as a PET Imaging Biomarker for Pancreas Cancer Management” (Contrast Media & Molecular Imaging, 2018).
Where a SMILES comes first, the peptide text is derived from it. The star is where a group is joined. DOTA = O=C(O)CN1CCN(CC(=O)O)CCN(CC(=O)*)CCN(CC(=O)O)CC1

Assays:
[1] = PET/CT imaging in CAPAN-2-tumour-bearing mice; assay type: in vivo; settings: female, athymic nude-Foxn1nu (nu/nu), mouse, iv, total radioactivity, CAPAN-2 xenograft mice, i.v., PET 90 min after injection, mean ± SD (n=33 for -1, n=17 for -2), read-out: Tumour uptake quantified by PET imaging
Description: For the cell line-derived model, 1 × 10^6 CAPAN-2 cells were injected subcutaneously into the flanks of female athymic nude-Foxn1nu (nu/nu) mice (Harlan Laboratories). Tumours were allowed to develop until palpable prior to PET imaging. Mice were sacrificed when the tumour mass reached a maximum size of 1500 mm^3 or tumour ulceration was observed, or mice were symptomatic from their tumours which included signs of lethargy, poor grooming, weight loss, and hunching.
PET imaging was performed with a small-animal Argus PET-CT scanner (SEDECAL, Madrid, Spain). PET studies (energy window 250–700 KeV and 30 min static acquisition) and CT studies (voltage 45 kV, current 150 μA, 8 shots, 360 projections, and standard resolution) were performed either at 90 min or at various time points after injection of ^68Ga-DOTA-AF7p or ^89Zr-DFO-LEM2/15, respectively, in mice anesthetized by inhalation of 2–2.5% isoflurane. PET image reconstruction was accomplished using a 2D-OSEM (ordered subset expectation maximization) algorithm (16 subsets and two iterations), with random and scatter correction. […] Tumour-to-blood and tumour-to-background ratios were calculated from %ID/g values in ROIs for the whole tumour, heart (a measure of the blood pool), and brain (for background measurements). Images were analysed with the image analysis software ITK-SNAP [26] […]

[2] = PET/CT imaging in heterotopic (subcutaneous) patient-derived xenograft mice; assay type: in vivo, mouse; settings: female, athymic nude-Foxn1nu (nu/nu), mouse, total radioactivity, heterotopic PDX mice
Source text: (§1) PDX models used in this work were established as described by Rubio-Viqueira et al. and Hidalgo et al. using four- to six-week-old female athymic nude-Foxn1nu (nu/nu) mice, purchased from Envigo (Barcelona, Spain). Animals were maintained at the Spanish National Cancer Research Centre (CNIO) Animal Facility (awarded with the AAALAC accreditation). Orthotopic tumours were monitored by ultrasonography, and those implanted into the flanks were allowed to grow to approximately 40 to 200 mm^3 prior to perform PET imaging studies.
(§2) PET imaging was performed with a small-animal Argus PET-CT scanner (SEDECAL, Madrid, Spain). PET studies (energy window 250–700 KeV and 30 min static acquisition) and CT studies (voltage 45 kV, current 150 μA, 8 shots, 360 projections, and standard resolution) were performed either at 90 min or at various time points after injection of ^68Ga-DOTA-AF7p or ^89Zr-DFO-LEM2/15, respectively, in mice anesthetized by inhalation of 2–2.5% isoflurane. PET image reconstruction was accomplished using a 2D-OSEM (ordered subset expectation maximization) algorithm (16 subsets and two iterations), with random and scatter correction. A calibration factor predetermined by scanning a cylindrical phantom containing a known activity of ^68Ga or ^89Zr was used to convert counts per pixel/sec to kBq/cm^3. Manually drawn regions of interest (ROIs) selected from PET images using CT anatomical guidelines were used to determine the mean radiotracer accumulation in units of %ID/g tissue (decay corrected to the time of injection) by dividing the obtained average tracer concentration (kBq/cm^3) in the region by the total ID (injected dose, expressed in kBq). Tumour-to-blood and tumour-to-background ratios were calculated from %ID/g values in ROIs for the whole tumour, heart (a measure of the blood pool), and brain (for background measurements). Images were analysed with the image analysis software ITK-SNAP [26] (http://www.itksnap.org).

[3] = system: subcutaneous PDAC patient-derived xenograft; assay: as above; assay type: in vivo, mouse; settings: heterotopic PDX mice
Source text: as §1, §2

Row | tissue uptake at 1.5 h [1] [%ID/g] | tissue uptake at 1.5 h ([2]; kidneys, PET, n=17, read-out: Mean accumulation in kidneys) [%ID/g] | tissue uptake at 1.5 h ([2]; liver, PET, n=16, read-out: Mean accumulation in liver) [%ID/g] | tissue uptake at 1.5 h ([2]; tumour, PET 90 min after injection, start of the PET study, n=8, read-out: Tumour uptake quantified by PET imaging) [%ID/g] | tissue uptake at 1.5 h ([2]; tumour, PET 90 min after injection, study day 5, n=8, read-out: Tumour uptake quantified by PET imaging) [%ID/g] | tissue uptake at 1.5 h ([2]; tumour, PET 90 min after injection, study day 8, n=6, read-out: Tumour uptake quantified by PET imaging) [%ID/g] | tissue uptake at 1.5 h ([2]; tumour, PET 90 min after injection, study day 14, n=10, read-out: Tumour uptake quantified by PET imaging) [%ID/g] | Route of excretion (signals in kidneys and bladder on PET) [3] | Compound
1 | 0.171 ± 0.095 | 4.03 ± 1.73 | 0.8 ± 0.6 | 0.23 ± 0.085 | 0.227 ± 0.142 | 0.26 ± 0.047 | 0.185 ± 0.082 | mainly excreted through the renal route | CC(C)C[C@H](NC(=O)[C@H](Cc1ccccc1)NC(=O)[C@@H](NC(=O)[C@H](CCCCN)NC(=O)[C@@H](NC(=O)[C@H](CC(N)=O)NC(=O)[C@H](Cc1c[nH]cn1)NC(=O)[C@H](CC(C)C)NC(=O)[C@H](Cc1c[nH]cn1)NC(=O)[C@H](CCCCN)NC(=O)[C@H](Cc1c[nH]c2ccccc12)NC(=O)[C@H](Cc1c[nH]cn1)NC(=O)CN1CCN(CC(=O)O)CCN(CC(=O)O)CCN(CC(=O)O)CC1)[C@@H](C)O)[C@@H](C)O)C(=O)O [^68Ga-DOTA-AF7p-1, metal not drawn] ({DOTA}-HWKHLHNTKTFL-OH)
2 | 0.216 ± 0.095 | – | – | – | – | – | – | – | CC(C)C[C@H](NC(=O)[C@H](Cc1ccccc1)NC(=O)[C@@H](NC(=O)[C@H](CCCCN)NC(=O)[C@@H](NC(=O)[C@H](CC(N)=O)NC(=O)[C@H](Cc1c[nH]cn1)NC(=O)[C@H](CC(C)C)NC(=O)[C@H](Cc1c[nH]cn1)NC(=O)[C@H](CCCCNC(=O)CN1CCN(CC(=O)O)CCN(CC(=O)O)CCN(CC(=O)O)CC1)NC(=O)[C@H](Cc1c[nH]c2ccccc12)NC(=O)[C@@H](N)Cc1c[nH]cn1)[C@@H](C)O)[C@@H](C)O)C(=O)O [^68Ga-DOTA-AF7p-2, metal not drawn] (H-HWK(DOTA)HLHNTKTFL-OH)
